Measured values as given in ChEMBL document CHEMBL2429768, “Eco-friendly synthesis and antimicrobial activities of substituted-5-(1H-indol-3-yl)methylene)-2,2-dimethyl-1,3-dioxane-4,6-dione derivatives” (2013).
In brackets after ≈: the same amount, converted by molar mass.

Experiments:
Type in all cases: functional
[1] = system: Klebsiella pneumoniae; assay: Antibacterial activity against Klebsiella pneumoniae after 24 hrs by agar well diffusion method
[2] = system: Staphylococcus aureus; assay: Antibacterial activity against Staphylococcus aureus ATCC 6538 at 50 ug/ml after 24 hrs by agar well diffusion method; settings: ATCC 6538, 24 h, read-out: DIZ
[3] = system: Klebsiella pneumoniae; assay: Antibacterial activity against Klebsiella pneumoniae at 300 ug/ml after 24 hrs by agar well diffusion method; settings: read-out: DIZ
[4] = system: Klebsiella pneumoniae; assay: Antibacterial activity against Klebsiella pneumoniae at 200 ug/ml after 24 hrs by agar well diffusion method; settings: read-out: DIZ
[5] = system: Klebsiella pneumoniae; assay: Antibacterial activity against Klebsiella pneumoniae at 500 ug/ml after 24 hrs by agar well diffusion method; settings: read-out: DIZ
[6] = system: Escherichia coli; assay: Antibacterial activity against Escherichia coli ATCC 8739 at 500 ug/ml after 24 hrs by agar well diffusion method; settings: ATCC 8739, 24 h, read-out: DIZ
[7] = system: Klebsiella pneumoniae; assay: Antibacterial activity against Klebsiella pneumoniae at 50 ug/ml after 24 hrs by agar well diffusion method; settings: read-out: DIZ
[8] = system: Escherichia coli; assay: Antibacterial activity against Escherichia coli ATCC 8739 at 200 ug/ml after 24 hrs by agar well diffusion method; settings: ATCC 8739, 24 h, read-out: DIZ
[9] = system: Bacillus subtilis; assay: Antibacterial activity against Bacillus subtilis at 100 ug/ml after 24 hrs by agar well diffusion method; settings: read-out: DIZ
[10] = system: Bacillus subtilis; assay: Antibacterial activity against Bacillus subtilis after 24 hrs by agar well diffusion method
[11] = system: Klebsiella pneumoniae; assay: Antibacterial activity against Klebsiella pneumoniae at 100 ug/ml after 24 hrs by agar well diffusion method; settings: read-out: DIZ
[12] = system: Staphylococcus aureus; assay: Antibacterial activity against Staphylococcus aureus ATCC 6538 at 100 ug/ml after 24 hrs by agar well diffusion method; settings: ATCC 6538, 24 h, read-out: DIZ
[13] = system: Escherichia coli; assay: Antibacterial activity against Escherichia coli ATCC 8739 at 50 ug/ml after 24 hrs by agar well diffusion method; settings: ATCC 8739, 24 h, read-out: DIZ
[14] = system: Staphylococcus aureus; assay: Antibacterial activity against Staphylococcus aureus ATCC 6538 at 200 ug/ml after 24 hrs by agar well diffusion method; settings: ATCC 6538, 24 h, read-out: DIZ
[15] = system: Bacillus subtilis; assay: Antibacterial activity against Bacillus subtilis at 300 ug/ml after 24 hrs by agar well diffusion method; settings: read-out: DIZ
[16] = system: Bacillus subtilis; assay: Antibacterial activity against Bacillus subtilis at 200 ug/ml after 24 hrs by agar well diffusion method; settings: read-out: DIZ
[17] = system: Escherichia coli; assay: Antibacterial activity against Escherichia coli ATCC 8739 after 24 hrs by agar well diffusion method; settings: ATCC 8739, 24 h
[18] = system: Staphylococcus aureus; assay: Antibacterial activity against Staphylococcus aureus ATCC 6538 after 24 hrs by agar well diffusion method; settings: ATCC 6538, 24 h
[19] = system: Escherichia coli; assay: Antibacterial activity against Escherichia coli ATCC 8739 at 100 ug/ml after 24 hrs by agar well diffusion method; settings: ATCC 8739, 24 h, read-out: DIZ
[20] = system: Escherichia coli; assay: Antibacterial activity against Escherichia coli ATCC 8739 at 300 ug/ml after 24 hrs by agar well diffusion method; settings: ATCC 8739, 24 h, read-out: DIZ
[21] = system: Staphylococcus aureus; assay: Antibacterial activity against Staphylococcus aureus ATCC 6538 at 300 ug/ml after 24 hrs by agar well diffusion method; settings: ATCC 6538, 24 h, read-out: DIZ
[22] = system: Staphylococcus aureus; assay: Antibacterial activity against Staphylococcus aureus ATCC 6538 at 500 ug/ml after 24 hrs by agar well diffusion method; settings: ATCC 6538, 24 h, read-out: DIZ
[23] = system: Bacillus subtilis; assay: Antibacterial activity against Bacillus subtilis at 500 ug/ml after 24 hrs by agar well diffusion method; settings: read-out: DIZ
[24] = system: Bacillus subtilis; assay: Antibacterial activity against Bacillus subtilis at 50 ug/ml after 24 hrs by agar well diffusion method; settings: read-out: DIZ
[25] = system: Aspergillus flavus; assay: Antifungal activity against Aspergillus flavus at 50 ug/ml after 72 hrs by agar well diffusion method
[26] = system: Aspergillus flavus; assay: Antifungal activity against Aspergillus flavus at 200 ug/ml after 72 hrs by agar well diffusion method
[27] = system: Aspergillus niger; assay: Antifungal activity against Aspergillus niger at 50 ug/ml after 72 hrs by agar well diffusion method
[28] = system: Aspergillus flavus; assay: Antifungal activity against Aspergillus flavus at 500 ug/ml after 72 hrs by agar well diffusion method
[29] = system: Rhizoctonia solani; assay: Antifungal activity against Rhizoctonia solani at 50 ug/ml after 72 hrs by agar well diffusion method
[30] = system: Aspergillus niger; assay: Antifungal activity against Aspergillus niger at 300 ug/ml after 72 hrs by agar well diffusion method
[31] = system: Fusarium oxysporum; assay: Antifungal activity against Fusarium oxysporum at 50 ug/ml after 72 hrs by agar well diffusion method
[32] = system: Fusarium oxysporum; assay: Antifungal activity against Fusarium oxysporum at 100 ug/ml after 72 hrs by agar well diffusion method
[33] = system: Rhizoctonia solani; assay: Antifungal activity against Rhizoctonia solani at 500 ug/ml after 72 hrs by agar well diffusion method
[34] = system: Fusarium oxysporum; assay: Antifungal activity against Fusarium oxysporum at 500 ug/ml after 72 hrs by agar well diffusion method
[35] = system: Rhizoctonia solani; assay: Antifungal activity against Rhizoctonia solani at 200 ug/ml after 72 hrs by agar well diffusion method
[36] = system: Aspergillus flavus; assay: Antifungal activity against Aspergillus flavus at 300 ug/ml after 72 hrs by agar well diffusion method
[37] = system: Rhizoctonia solani; assay: Antifungal activity against Rhizoctonia solani at 300 ug/ml after 72 hrs by agar well diffusion method
[38] = system: Aspergillus flavus; assay: Antifungal activity against Aspergillus flavus after 72 hrs by agar well diffusion method
[39] = system: Fusarium oxysporum; assay: Antifungal activity against Fusarium oxysporum at 300 ug/ml after 72 hrs by agar well diffusion method
[40] = system: Rhizoctonia solani; assay: Antifungal activity against Rhizoctonia solani after 72 hrs by agar well diffusion method
[41] = system: Aspergillus niger; assay: Antifungal activity against Aspergillus niger at 200 ug/ml after 72 hrs by agar well diffusion method
[42] = system: Aspergillus niger; assay: Antifungal activity against Aspergillus niger at 100 ug/ml after 72 hrs by agar well diffusion method
[43] = system: Rhizoctonia solani; assay: Antifungal activity against Rhizoctonia solani at 100 ug/ml after 72 hrs by agar well diffusion method
[44] = system: Fusarium oxysporum; assay: Antifungal activity against Fusarium oxysporum after 72 hrs by agar well diffusion method
[45] = system: Fusarium oxysporum; assay: Antifungal activity against Fusarium oxysporum at 200 ug/ml after 72 hrs by agar well diffusion method
[46] = system: Aspergillus flavus; assay: Antifungal activity against Aspergillus flavus at 100 ug/ml after 72 hrs by agar well diffusion method
[47] = system: Aspergillus niger; assay: Antifungal activity against Aspergillus niger at 500 ug/ml after 72 hrs by agar well diffusion method
[48] = system: Aspergillus niger; assay: Antifungal activity against Aspergillus niger after 72 hrs by agar well diffusion method

Work on CN[C@@H]1[C@H](O[C@H]2[C@H](O[C@H]3[C@H](O)[C@@H](O)[C@H](N=C(N)N)[C@@H](O)[C@@H]3N=C(N)N)O[C@@H](C)[C@]2(O)C=O)O[C@@H](CO)[C@H](O)[C@H]1O [STREPTOMYCIN] yielded an MIC [1] of 5 µg/mL (≈ 8.6 µM), a zone of inhibition at 50 µg/mL [2] of 10 mm and a zone of inhibition at 300 µg/mL [3] of 28 mm. For the same compound, the zone of inhibition at 200 µg/mL [4] was 24 mm, the zone of inhibition at 500 µg/mL [5] was 37 mm and the zone of inhibition at 500 µg/mL [6] was 36 mm. It also gave a zone of inhibition at 50 µg/mL [7] of 13 mm, a zone of inhibition at 200 µg/mL [8] of 23 mm and a zone of inhibition at 100 µg/mL [9] of 14 mm. For the same compound, the MIC [10] was 20 µg/mL (≈ 34.4 µM), the zone of inhibition at 100 µg/mL [11] was 18 mm and the zone of inhibition at 100 µg/mL [12] was 15 mm. It also gave a zone of inhibition at 50 µg/mL [13] of 12 mm, a zone of inhibition at 200 µg/mL [14] of 19 mm and a zone of inhibition at 300 µg/mL [15] of 20 mm. The zone of inhibition at 200 µg/mL [16] was 17 mm, the MIC [17] was 5 µg/mL (≈ 8.6 µM) and the MIC [18] was 10 µg/mL (≈ 17.2 µM). It also gave a zone of inhibition at 100 µg/mL [19] of 17 mm, a zone of inhibition at 300 µg/mL [20] of 26 mm and a zone of inhibition at 300 µg/mL [21] of 22 mm. The zone of inhibition at 500 µg/mL [22] was 31 mm, the zone of inhibition at 500 µg/mL [23] was 28 mm and the zone of inhibition at 50 µg/mL [24] was 9 mm.
Work on NYSTATIN yielded an inhibition zone (IZ) [25] of 11 mm, an inhibition zone (IZ) [26] of 16 mm and an inhibition zone (IZ) [27] of 11.2 mm. For the same compound, the inhibition zone (IZ) [28] was 32 mm, the inhibition zone (IZ) [29] was 16 mm and the inhibition zone (IZ) [30] was 23 mm. The inhibition zone (IZ) [31] was 15 mm, the inhibition zone (IZ) [32] was 18 mm and the inhibition zone (IZ) [33] was 38 mm. The inhibition zone (IZ) [34] was 37 mm, the inhibition zone (IZ) [35] was 22 mm and the inhibition zone (IZ) [36] was 22 mm. For the same compound, the inhibition zone (IZ) [37] was 30 mm, the MIC [38] was 20 µg/mL and the inhibition zone (IZ) [39] was 29 mm. The MIC [40] was 15 µg/mL, the inhibition zone (IZ) [41] was 16.6 mm and the inhibition zone (IZ) [42] was 14 mm. For the same compound, the inhibition zone (IZ) [43] was 20 mm, the MIC [44] was 15 µg/mL and the inhibition zone (IZ) [45] was 21 mm. The inhibition zone (IZ) [46] was 13 mm, the inhibition zone (IZ) [47] was 34 mm and the MIC [48] was 20 µg/mL.
